Experimental findings from patent US11872263B2, “AIMP1 protein fragment and hair growth-promoting composition containing same as active ingredient” (CUREBIO THERAPEUTICS, priority 2016, dated 2024) are described below.

Test [1] has as its system dorsal hair of depilated C57BL6 mice. Briefly: In vivo hair regrowth after depilation of dorsal skin of mice. Set-up: species or system mouse. To be noted: 13 days after depilation, 100 nM polypeptide, 80 μl topical once a day. The procedure: (§1) The hair of the dorsal skin of mice (7 weeks old male C57BL6, purchased from Orient Bio Inc.) was cut out with a clipper, and hair removal cream (Niclean, Ildong Pharmaceutical) was applied. The depilated area was about 2×2.5 cm. Mice were treated with 20% glycerol/PBS (control group), 3% Minoxidil (MNX, 140 mM), FGF7 (100 nM) or Neo-Pep of the present invention (polypeptide of SEQ ID NO: 1, 100 nM), respectively, once a day in 80 μl using brush, for 13 days (n=6 per group).
as §1, with “Specifically, the hair” for “The hair”, “of a mouse” for “of mice”, “group). For comparative observation, the dorsal skin of the mouse was photographed before and after the beginning of the test.” for “group).”

Test [2] deals with hair follicles of anagen phase in dorsal skin. Briefly: H&E staining of dorsal skin sections: anagen hair follicle count and dermis thickness. To be noted: H&E stained dorsal skin sections, Day 13 after depilation, 100 nM. In kind it is in vivo, mouse. The procedure:
Skin samples of 7 weeks old male C57BL6 mice (purchased from Orient Bio Inc.) were collected and placed in a cryomold using an OCT compound (Tissue-Tek) and stored at −80° C. in a freezer. After tissue sections were prepared with Microm HM 525 (Thermo Scientific), the tissue sections prepared in the slide glass were fixed with 4% paraformaldehyde for 10 minutes, washed twice with PBS for 5 minutes, and then stained with 50 μl of hematoxylin solution (Sigma Aldrich) for 6 minutes and washed with water and PBS for 5 minutes. Then, stained with eosin (Sigma Aldrich), briefly washed with water and washed with PBS for 5 min, then briefly twice with 95% ethanol and 100% ethanol, respectively. After treatment with xylene (Duksan) twice for 2 min, the stained tissue sections were covered with cover slides and fixed.
In addition, dorsal skin samples of the mice were collected and placed in a cryomold using an OCT compound (Tissue-Tek) and stored at −80° C. in a freezer. […] The number of hair follicles of anagen phase (growth phase) was counted and compared quantitatively in dorsal skin sections of each group stained with hematoxylin and eosin (H & E).

In test [3] the test system is hair follicle region of skin tissue. Briefly: Histological analysis (IHC for BrdU, β-catenin, Cytokeratin 15) of skin at Day 6 after depilation. It is filed as in vivo, mouse. To be noted: 100 nM. On the procedure: A skin sample of 7 weeks old male C57BL6 mice (purchased from Orient Bio Inc.) was collected and placed in a paraffin block. IHC (Immunohistochemistry) was performed using Cytokeratin 15 antibody (Abcam), BrdU antibody (Novusbio), and β-catenin antibody.
For reference, β-catenin is a hair follicle signaling marker, Cytokeratin 15 is a hair follicle stem cell marker, and BrdU is a cell proliferation marker.
β-catenin is a very important protein for hair growth and a very important factor in follicular stem cell proliferation playing a role as a signaling marker for hair follicle cells. In addition, Cytokeratin 15 acts as a biomarker of hair follicle stem cells, and BrdU is known to be a factor that plays a role as a cell growth marker.

The subject of test [4] is CD34+ hair follicle stem cells. Briefly: In vitro hair growth assay / BrdU proliferation assay with CD34+ hair follicle stem cells. It is filed as cell-based, mouse. On the procedure: The hair of the dorsal skin of 7 weeks old male C57BL6 mice (purchased from Orient Bio Inc.) were cut with a clipper and skin tissue samples of the depilated dorsal region of the mice were collected. The collected skin tissue samples were immersed in medium using collagenase, DNase I, and hyaluronidase, and cells were isolated using Gentle MACSTM Dissociator (Miltenyi Biotec). After the cells were separated, the separated cells were incubated with a mouse CD34-Biotin antibody (Miltenyi Biotec). Cells and antibody solutions were incubated with streptavidin microbeads (Miltenyi Biotec) and then separated using LS column (Miltenyi Biotec). The separated cells were cultured in DMEM medium containing 10% FBS, 1% penicillin/streptomycin solution in humidified air of 95% 02 and 5% CO2 at 37° C.
Cell proliferation can be confirmed using the BrdU cell proliferation assay kit (Cell Signaling). Proliferation assays were performed using protocols presented by […]. Briefly, the cells were incubated with BrdU for 2 h. The primary BrdU detection antibody was incubated for 1 hour and the secondary anti-mouse IgG, HRP-conjugate antibody was incubated for 30 minutes.
A hair growth in vitro assay was performed using the Cyquant Assay (Thermo Fisher). […]

Test [5] deals with β-catenin target genes AXIN, CD44 and TCF7. Briefly: qRT-PCR of β-catenin target genes in CD34+ cells. In kind it is cell-based, mouse. To be noted: 100 nM, CD34+ cells cultured 8 hours. On the procedure: In order to confirm the induction of CD34+ hair follicle stem cell proliferation through β-catenin pathway, mRNA expression levels of β-catenin target genes AXIN, CD44 and TCF7 were confirmed by the following method. Specifically, each test substance was treated and CD34+ cells were cultured for 8 hours. Then, the cultured cells were collected, RNA was isolated using GeneJET RNA purification kit (Thermo Fisher, K0731), and cDNA was synthesized with the Maxima first strand cDNA synthesis kit (Thermo Fisher, K1642). qRT-PCR was performed using each of the gene-specific primers (TCF7: 5′-[…]-3′ (SEQ ID NO: 36) and 5′-[…]-3′ (SEQ ID NO: 37), AXIN2: 5′-CTCCTTGGAGGCAAGAGC-3′ (SEQ ID NO: 38) and 5′-GGCCACGCAGCACCGCTG-3′ (SEQ ID NO: 39), CD44: 5′-[…]-3′ (SEQ ID NO: 40) and 5′-GGAGTCTTCGCTTGGGGTA-3′ (SEQ ID NO: 41)), Maxima SYBR green/ROX qPCR master mix (Thermo Fisher, K0222) and 7500 Real-time PCR system (Applied Biosystems, 2720; condition: 40 cycles, 2 step (95° C. for 15 sec, and 54° C. for 60 sec). The expression level of each gene was calculated by the ΔΔCT method.
On the technique in general: Real-time PCR tracks product formation cycle by cycle.

For test [6], the system named is C3H/HeJ mice having alopecia universalis. Briefly: Hair growth in C3H/HeJ mice with skin graft-induced alopecia areata. It is filed as in vivo, mouse. To be noted: 100 μl of 100 nM topical once daily for 14 weeks. The source says: In order to confirm the effect of the polypeptide of the present invention on the human hair growth cycle, C3H/HeJ mouse (Jackson Laboratory, USA) was used as an animal model reflecting the pathological state of human alopecia areata. The advantage of using the C3H/HeJ mouse is that when full thickness skin graft is applied to an aged mouse having alopecia areata from young age, patchy alopecia develops within 8 to 10 weeks, and after 20 weeks, alopecia extends to the whole body skin and result in a chronic state of alopecia universalis.
In this test, C3H/HeJ female mice having alopecia universalis that was induced 25 weeks after skin transplantation as described above were used. Without any pretreatment such as shaving or depilation, control group (Control-treated mice, 100 μl of 20% glycerol/PBS) and Neo-Pep polypeptide treated group (Peptide-treated mice, 100 μl of 100 nM Neo-Pep polypeptide (SEQ ID NO: 1) in 20% glycerol/PBS) were treated with each test material topically around the alopecia region using brush, once daily, for 14 weeks. Control group and Neo-Pep treated group consisted of 4 mice, respectively.
Photographs were taken every 2 weeks from the beginning of the experiment.

Test [7] concerns hair follicles in skin tissue of C3H/HeJ mice. Briefly: H&E histology of skin tissue of C3H/HeJ alopecia areata mice. It is filed as in vivo, mouse. To be noted: 100 nM topical. An excerpt: Meanwhile, in the images of the skin tissue of the mouse in FIG. 7, the skin tissue at the alopecia area and the area without alopecia around it was collected, fixed in Fekete's acid alcohol formalin and analyzed for H&E staining.
These are main characteristics used for diagnosing alopecia areata. And follicular dystrophy is a phenomenon that occurs frequently in alopecia areata, which means that hair follicles are twisted and deformed or have weak or disrupted hair shaft.

Regarding “AVLKRLEQKGAEADQIIEYLKQQVSLLKEKAILQATLREEK (Homo sapiens Neo-Pep polypeptide; AIMP1-(6-46))”, in test [1], the “dorsal hair growth compared with control group” value is on record as “grew much more”. Further, in test [2], the “dermis thickness compared with control” value is “much thicker” and the “number of hair follicles of anagen phase compared with control” value was “more than twice as much”. For the same sequence, the “start of anagen phase compared with control (BrdU, β-catenin, Cytokeratin 15)” value in test [3] is “starts earlier”. Moreover, the “proliferation of CD34+ hair follicle stem cells” value in test [4] (1 nM, 10 nM, 100 nM and 1000 nM) is reported as “induced proliferation of CD34+ hair follicle stem cells in a dose-dependent manner”. In addition, in test [4] (each peptide 100 nM, 24 hours), the “inducing proliferation of CD34+ hair follicle stem cells (relative cell number)” value was “induced proliferation”. Also, in test [5], the “mRNA expression level of AXIN, CD44 and TCF7 compared to the control group” value is given as 5 fold. Also, the “time at which hair began to grow again” value in test [6] is 11 weeks. Further, in test [6] (4 mice per group), the “mice with mild to moderate hair growth” value is recorded as 3 out of 4. Also, the “development of inflammation and deformed hair shaft compared to the control group” value in test [7] is reported as “significantly lower”.
